Patent publication US6653296B1, “Antiretroviral enantiomeric nucleotide analogs” (Institute of Organic Chemistry and Biochemistry of the …, priority 1992, dated 2003)
≈ marks a conversion by molar mass, not a printed value. Where two headings read alike, the source gives them in different places. Marks after values point to notes of the source that are not given here.

How the values were obtained:
HIV-1 = HIV-1 induced cytopathicity in MT-4 cells; format: cell-based, human immunodeficiency virus type 1; conditions: for EC50 HIV-1: concentration required to inhibit HIV-induced cytopathicity in MT-4 cells by 50%, 5 days
Procedure: (§1) The activity of the compounds against HIV-1 and HIV-2 induced cytopathicity was examined in human lymphocyte MT-4 cells. […] The infected cell cultures were then incubated at 37° C. for 5 days in a humidified CO2-controlled incubator. Then, the cytopathicity of the virus was examined by determination of MT-4 cell viability by trypan blue dye staining.

HIV-2 = HIV-2 induced cytopathicity in MT-4 cells; format: cell-based, human immunodeficiency virus type 2; conditions: for EC50 HIV-2: concentration required to inhibit HIV-induced cytopathicity in MT-4 cells by 50%, 5 days
Procedure: as §1

[1] = test system: Moloney murine sarcoma virus (MSV); experiment: MSV-induced transformation of C3H/3T3 cells; format: cell-based; conditions: concentration required to inhibit MSV-induced C3H/3T3 cell transformation by 50%; day 6
Procedure: The cells were seeded in 1-ml-wells of a 48-well microtiter plate and exposed to 80 PFU (plaque forming units) for 60-90 minutes. Then, the virus was removed and culture medium containing appropriate concentrations of the test compounds were added (1 ml per well). At day 6 post infection, MSV-induced transformation of the cell culture was examined microscopically.

C3H/3T3 cells = experiment: Microscopic alteration of C3H/3T3 cell culture morphology; format: cell-based, murine; conditions: concentration that results in a microscopic alteration of the C3H/3T3 cell culture morphology
[2] = test system: Moloney murine sarcoma virus (MSV); experiment: MSV-induced tumor formation and death in newborn NMRI mice, intraperitoneal administration; format: in vivo; conditions: for Mean day of animal death: observed 20 days
Procedure: Two gram newborn NMRI mice were injected intramuscularly in the left hind leg with 50 μl of 250-fold diluted stock preparation of Moloney murine sarcoma virus. […] Another group of mice (20 animals) was administered RPMI-1640 medium as placebo. All compounds were solubilized in RPMI-1640 medium. The mice were observed daily for 20 days and the day of tumor initiation and the day of animal death was recorded for each animal. Statistical analyses were performed by calculating the standard deviation.

retrovirus = experiment: Anti-retrovirus activity in vitro, conclusions on Table 1 (HIV-1, HIV-2, MSV); format: cell-based
herpes viruses = conditions: racemic mixtures, prior art; cited from earlier work
MT-4 cells = experiment: MT-4 cell viability (trypan blue); format: cell-based, human
Procedure: The activity of the compounds against HIV-1 and HIV-2 induced cytopathicity was examined in human lymphocyte MT-4 cells. […]. The infected cell cultures were then incubated at 37° C. for 5 days in a humidified CO2-controlled incubator. Then, the cytopathicity of the virus was examined by determination of MT-4 cell viability by trypan blue dye staining. The results are summarized in Table 1 in comparison with the data on the prototype compounds.

[3] = test system: Moloney murine sarcoma virus (MSV); experiment: MSV-induced tumor formation in NMRI mice, oral administration; format: in vivo
Procedure: Three-week-old NMRI mice (about 10 grams body weight) were injected intramuscularly in the left hind leg with 50 μl of 20-fold diluted stock preparation of Moloney murine sarcoma virus. Starting 2-4 hours before virus infection, six animals received an orally administered test compound twice a day at 100 mg/kg(total dose) daily for five subsequent days. The control (placebo) group consisted of 14 animals. The experiment was evaluated as described in Example 35.

[4] = twice a day, 100 mg/kg total daily dose for five days

## CCC(C)Nc1nc(N)nc2c1ncn2C[C@@H](C)OCP(=O)(O)O (stereo partly drawn) [(R)-9-PMP-6-(2-butyl)-DAP, 9-(R)-(2-Phosphonomethoxypropyl)-2-amino-6-(2-butyl)aminopurine]
HIV-1
  EC50 HIV-1: 30 ± 19 µg/mL (≈ 83.7 µM)
HIV-2
  EC50 HIV-2: 25 ± 15 µg/mL (≈ 69.8 µM)
[1]
  EC50 MSV: 3.5 µg/mL (≈ 9.77 µM)

## C[C@H](Cn1cnc2c(N3CCCCC3)nc(N)nc21)OCP(=O)(O)O [(R)-9-PMP-6-piperidino-DAP, 9-(R)-(2-Phosphonomethoxypropyl)-2-amino-6-piperidinopurine]
HIV-1
  EC50 HIV-1: >100 µg/mL
HIV-2
  EC50 HIV-2: >100 µg/mL
[1]
  EC50 MSV: 12.6 µg/mL (≈ 34 µM)

## C[C@H](Cn1cnc2c(NC3CCCCC3)nc(N)nc21)OCP(=O)(O)O [(R)-9-PMP-6-cyclohexyl-DAP, 9-(R)-(2-Phosphonomethoxypropyl)-2-amino-6-cyclohexylaminopurine]
HIV-1
  EC50 HIV-1: 8.0 µg/mL (≈ 20.8 µM)
HIV-2
  EC50 HIV-2: 7 µg/mL (≈ 18.2 µM)

## Nc1ncnc2c1ncn2C[C@H](CF)OCP(=O)(O)O [(R)-FPMPA, reference compound]
C3H/3T3 cells
  MIC: >100 µg/mL
[2]; single i.p. dose 20 mg/kg
  Mean day of animal death: 10.4 ± 0.52 days
[2]; single i.p. dose 50 mg/kg
  Mean day of animal death: 11.2 ± 0.92 days

## C[C@H](Cn1cnc2c(=O)[nH]c(N)nc21)OCP(=O)(O)O [(R)-PMPG, 9-(R)-(2-phosphonomethoxypropyl)guanine]
C3H/3T3 cells
  MIC: 40 µg/mL (≈ 132 µM)

## Nc1ncnc2c1ncn2C[C@@H](CF)OCP(=O)(O)O [(S)-FPMPA, reference compound]
C3H/3T3 cells
  MIC: >100 µg/mL
[2]; single i.p. dose 10 mg/kg
  Mean day of animal death: 13.6 ± 2.8 days
[2]; single i.p. dose 20 mg/kg
  Mean day of animal death: 17.2 ± 2.2 days
[2]; single i.p. dose 50 mg/kg
  percentage of MSV-infected mice still alive at day 20 post infection: 100%
  Mean day of animal death: > 20 days

## C[C@H](Cn1cnc2c(NCc3ccccc3)nc(N)nc21)OCP(=O)(O)O [(R)-9-PMP-6-benzyl-DAP, 9-(R)-(2-Phosphonomethoxypropyl)-2-amino-6-benzylaminopurine]
HIV-1
  EC50 HIV-1: 10.3 µg/mL (≈ 26.3 µM)
HIV-2
  EC50 HIV-2: 8 µg/mL (≈ 20.4 µM)
[1]
  EC50 MSV: 0.3 µg/mL (≈ 0.765 µM)

## Nc1nc(N)c2ncn(C[C@@H](CF)OCP(=O)(O)O)c2n1 [(S)-FPMPDAP, reference compound]
C3H/3T3 cells
  MIC: >100 µg/mL
[2]; single i.p. dose 10 mg/kg
  Mean day of animal death: 16.7 ± 3.2 days
[2]; single i.p. dose 25 mg/kg
  Mean day of animal death: 14.6 ± 2.2 days
[2]; single i.p. dose 50 mg/kg
  Mean day of animal death: 16.5 ± 0.71 days

## C[C@H](Cn1cnc2c(N(C)C)nc(N)nc21)OCP(=O)(O)O [(R)-9-PMP-6-dimethyl-DAP, 9-(R)-(2-Phosphonomethoxypropyl)-2-amino-6-dimethylaminopurine]
HIV-1
  EC50 HIV-1: 2.3 µg/mL (≈ 6.96 µM)
HIV-2
  EC50 HIV-2: 4.2 µg/mL (≈ 12.7 µM)
[1]
  EC50 MSV: 3.25 µg/mL (≈ 9.84 µM)

## C[C@@H](Cn1cnc2c(=O)[nH]c(N)nc21)OCP(=O)(O)O [(S)-PMPG, 9-(S)-(2-Phosphonomethoxypropyl)guanine]
C3H/3T3 cells
  MIC: 8 µg/mL (≈ 26.4 µM)

## C[C@H](Cn1cnc2c(N3CCOCC3)nc(N)nc21)OCP(=O)(O)O [(R)-9-PMP-6-morpholino-DAP, 9-(R)-(2-Phosphonomethoxypropyl)-2-amino-6-morpholinopurine]
HIV-1
  EC50 HIV-1: >100 µg/mL
HIV-2
  EC50 HIV-2: >100 µg/mL
[1]
  EC50 MSV: 6.1 µg/mL (≈ 16.4 µM)

## C[C@@H](Cn1cnc2c(N)ncnc21)OCP(=O)(O)O [(S)-PMPA, 9-(S)-(2-Phosphonomethoxypropyl)adenine]
C3H/3T3 cells
  MIC: >100 µg/mL
[2]; i.p. dose of 50 mg/kg
  antiretroviral activity in vivo (in words): no marked antiretroviral activity
[2]; single i.p. dose 10 mg/kg
  Mean day of animal death: 10.9 ± 0.88 days
[2]; single i.p. dose 20 mg/kg
  Mean day of animal death: 10.9 ± 0.88 days
[2]; single i.p. dose 50 mg/kg
  Mean day of animal death: 12.4 ± 0.84 days
retrovirus
  antiretroviral activity in vitro (in words): devoid of marked antiretroviral activity

## C[C@H](Cn1cnc2c(S)nc(N)nc21)OCP(=O)(O)O [(R)-9-PMP-6-thioG, 9-(R)-(2-Phosphonomethoxypropyl)-2-amino-6-thiopurine]
HIV-1
  EC50 HIV-1: >100 µg/mL
HIV-2
  EC50 HIV-2: >100 µg/mL
[1]
  EC50 MSV: 3.94 µg/mL (≈ 12.3 µM)

## C[C@H](Cn1nnc2c(N)ncnc21)OCP(=O)(O)O [(R)-9-PMP-8-azaA, 9-(R)-(2-Phosphonomethoxypropyl)-8-azaadenine]
HIV-1
  EC50 HIV-1: 2.42 µg/mL (≈ 8.4 µM)
HIV-2
  EC50 HIV-2: 1.75 µg/mL (≈ 6.07 µM)
[1]
  EC50 MSV: 0.43 µg/mL (≈ 1.49 µM)

## C[C@@H](Cn1cnc2c(N)nc(N)nc21)OCP(=O)(O)O [(S)-PMPDAP, 9-(S)-(2-phosphonomethoxypropyl)-2,6-diaminopurine]
C3H/3T3 cells
  MIC: >100 µg/mL

## C[C@H](Cn1cnc2c(S)ncnc21)OCP(=O)(O)O [(R)-9-PMP-6-thioPu, 9-(R)-(2-Phosphonomethoxypropyl)-6-mercaptopurine]
HIV-1
  EC50 HIV-1: >100 µg/mL
HIV-2
  EC50 HIV-2: >100 µg/mL
[1]
  EC50 MSV: 18 µg/mL (≈ 59.2 µM)

## CCCCNc1nc(N)nc2c1ncn2C[C@@H](C)OCP(=O)(O)O [(R)-9-PMP-6-butyl-DAP, 9-(R)-(2-Phosphonomethoxypropyl)-2-amino-6-butylaminopurine]
HIV-1
  EC50 HIV-1: 13.1 µg/mL (≈ 36.6 µM)
HIV-2
  EC50 HIV-2: 9.8 µg/mL (≈ 27.3 µM)
[1]
  EC50 MSV: 3.27 µg/mL (≈ 9.13 µM)

## CC(Cn1cnc2c(=O)[nH]c(N)nc21)OCP(=O)(O)O (stereo not shown) [PMPG]
Herpes viruses
  antiherpetic effect (in words): due to its substantial cytotoxicity

## Nc1ncnc2c1ncn2CCOCP(=O)(O)O [PMEA, reference compound]
C3H/3T3 cells
  MIC: >100 µg/mL

## C[C@H](Cn1cnc2c(N)ncnc21)OCP(=O)(O)O [(R)-PMPA, 9-(R)-(2-Phosphonomethoxypropyl)adenine]
MT-4 cells
  toxicity to the cells: non-toxic
C3H/3T3 cells
  MIC: >100 µg/mL
[2]; i.p.
  inhibiting tumor initiation and prolonging the life-span of MSV-infected mice (in words): highly effective
[2]; single i.p. dose 2 mg/kg
  Mean day of animal death: 12.6 ± 1.26 days
[2]; single i.p. dose 5 mg/kg
  Mean day of animal death: 14.4 ± 0.47 days
[2]; single i.p. dose 10 mg/kg
  Mean day of animal death: 18.3 ± 1.10 days
[2]; single i.p. dose 20 mg/kg
  percentage of MSV-infected mice still alive at day 20 post infection: 100%
  Mean day of animal death: > 20 days
[2]; single i.p. dose 50 mg/kg
  percentage of MSV-infected mice still alive at day 20 post infection: 100%
  Mean day of animal death: > 20 days
[2]; single i.p. dose of 50 mg/kg
  protection against MSV-induced tumor development (in words): full protection
[2]; single i.p. dose of 10-50 mg/kg
  increasing the mean day of tumor initiation and animal death (in words): markedly effective
retrovirus; in vitro, summary of Table 1
  concentration markedly inhibitory to retrovirus replication: 1 to 2 µg/mL

## Nc1nc(N)c2ncn(C[C@H](CF)OCP(=O)(O)O)c2n1 [(R)-FPMPDAP, reference compound]
C3H/3T3 cells
  MIC: >100 µg/mL
[2]; single i.p. dose 10 mg/kg
  Mean day of animal death: 12.0 ± 1.0 days
[2]; single i.p. dose 25 mg/kg
  Mean day of animal death: 14.1 ± 1.5 days
[2]; single i.p. dose 50 mg/kg
  Mean day of animal death: 13.9 ± 1.4 days

## C[C@H](Cn1cnc2c(N)nc(N)nc21)OCP(=O)(O)O [(R)-PMPDAP, 9-(R)-(2-Phosphonomethoxypropyl)-2,6-diaminopurine]
HIV-1; MT-4 cells
  selectivity index (ratio cytotoxic dose/antivirally active dose) for HIV-1: > 2 000
HIV-2; MT-4 cells
  selectivity index (ratio cytotoxic dose/antivirally active dose) for HIV-2: > 2 000
MT-4 cells; at 100 μg/ml
  toxicity to the cells: non-toxic
C3H/3T3 cells
  MIC: >100 µg/mL
[2]; i.p.
  in vivo anti-MSV activity relative to (R)-PMPA: five-fold superior over (R)-PMPA
  inhibiting tumor initiation and prolonging the life-span of MSV-infected mice (in words): highly effective
[2]; single i.p. dose 2 mg/kg
  percentage of MSV-infected mice still alive at day 20 post infection: 70%
  percentage of MSV-infected mice without tumor at day 20 post infection: 36%
  Mean day of animal death: 15 days
[2]; single i.p. dose 5 mg/kg
  percentage of MSV-infected mice still alive at day 20 post infection: 90%
  Mean day of animal death: 16.5 days
[2]; single i.p. dose 10 mg/kg
  percentage of MSV-infected mice still alive at day 20 post infection: 90%
  Mean day of animal death: 18.5 days
[2]; single i.p. dose 20 mg/kg
  percentage of MSV-infected mice still alive at day 20 post infection: 95%
  Mean day of animal death: 18 days
[2]; single i.p. dose of 10-20 mg/kg
  protection of the animals against MSV-induced tumor development: 90-95%
[3]; 100 mg/kg/day
  increase of the mean day of tumor initiation: 50%
[3]; [4]
  Mean day of tumor initiation: 7.5 ± 1.0*^) day
  Number of mice developing tumor (%): 67%
